Experiments:
Hippo pathway = Hippo pathway luciferase reporter in 293 cells; assay type: cell-based; conditions: 24 hours
Description: (§1) FIGS. 1A-1C. CPADAML16 is a common inhibitor of Wnt (FIG. 1C), TGF beta (FIG. 1B), and Hippo (FIG. 1A). 293 cells were transfected with luciferase reporters corresponding to each pathway and then exposed to CPADAML16, the Wnt inhibitor Pyrvinium (PYR) or the TGF beta inhibitor SB-431 at the indicated concentrations. After 24 hours, the cells were lysed and luciferase activity measured. Data represents average of three replicates ±SE.
The present disclosure concerns the discovery of small molecules inhibitors of major EMT pathways particularly those mediated by TGF beta, Wnt and Hippo. These pathways are known to play key roles in the induction of epithelial-mesenchymal transition (EMT) a cellular process responsible for cancer metastasis, resistance to therapy and organ fibrosis. […] In a search for putative inhibitors of the Hippo pathway, a luciferase reporter system was used to screen a series of chemical compounds. […] CPADAML16 suppressed cancer cell ability to undergo EMT, to proliferate and to become drug resistant. Investigation of the underlying mechanism led to the finding that CPADAML16 induces degradation of the Hippo transducer TAZ mainly by activating AMPK upstream of the GSK3 beta associated degradation complex. CPADAML16 exerted a strong anti-tumor activity in a xenograft mice model with no noticeable toxicity. […]

Wnt signaling = test: Wnt pathway luciferase reporter in 293 cells; assay type: cell-based; conditions: 24 hours
Description: as §1
(§2) By comparison, none of Wnt or TGF beta inhibitors had affected the Hippo pathway reporter. Based on this, CPADAML16 may represent a unique candidate molecule to target simultaneously the Hippo, Wnt and TGF beta pathways.

TGF beta signaling = test: TGF beta pathway luciferase reporter in 293 cells; assay type: cell-based; conditions: 24 hours
Description: as §1, §2

TAZ = test: Western blot of Hippo pathway transducers: TAZ; assay type: cell-based
From the text: (§3) FIGS. 2A-2D. Putative mechanism. FIG. 2A. Effect of CPADAML16 on Hippo pathway transduces YAP, TAZ and TEAD measured by Western blot. FIG. 2B. Possible signaling pathways leading to degradation of TAZ. The effects of CPADAML16 on the Mst/Lats kinases and the Akt/GSK3 beta axis are shown in FIGS. 2C and 2D, respectively.
(§4) There are three possibilities by which this might occur (FIG. 2B): 1) through activation Mst/Lats, 2) inhibition of Akt or 3) activation of AMPK. […] In light of recent findings that TAZ is also target of the GSK3 beta associated destruction complex, we reasoned that CPADAML16 may act directly or indirectly to activate this complex. […] These effects were concentration and time dependent and valid in various cell lines […]. […] Together these findings identified AMPK as a novel target of CPADAML16, shedding light on a new mechanism by which this compound could signal for TAZ degradation and inhibition of Hippo signaling.

YAP = test: Western blot of Hippo pathway transducers: YAP; assay type: cell-based
From the text: as §3, §4

TEAD = test: Western blot of Hippo pathway transducers: TEAD; assay type: cell-based
From the text: as §3, §4

MST1 = test: Activation (phosphorylation) of Hippo core kinase MST1; assay type: cell-based
From the text: as §3, §4

Lats1 = test: Activation (phosphorylation) of Hippo core kinase Lats1; assay type: cell-based
From the text: as §3, §4

GSK3 beta = test: Phosphorylation of GSK3; assay type: cell-based; conditions: inhibited phosphorylation = induced activation
From the text: as §3, §4

Akt = test: Phosphorylation of Akt; assay type: cell-based
From the text: as §3, §4

AMPK = test: Phosphorylation of AMPK at threonine 172; assay type: cell-based
From the text: FIGS. 3A-3G. Effect of CPADAML16 on […]. FIGS. 3A and 3B. Dose and time dependent effects of CPADAML16 on phosphorylation of AMPK. FIG. 3C. Effect of AICAR on phosphorylation of AMPK. FIG. 3D. Effect of CPADAML16 on phosphorylation of AMPK downstream target ACC. FIGS. 3E-3G. Confirmation CPADAML16-induced AMPK phosphorylation in different cell lines.
as §4

cell migration = test: Cell monolayer scratch, cell migration; assay type: cell-based
Description: (§5) FIGS. 4A-4C. Inhibition of cell migration, proliferation and resistance to therapy by CPADAML16. FIG. 4A. Cell monolayer scratch depicting inhibition of cell migration by CPADAML16. FIG. 4B. Effect on cell proliferation measured after 5 days of incubation. FIG. 4C. Cell response to doxorubicin was measured in the presence and absence of CPADAML16. Data in FIG. 4C represent average of three determinations ±SE.

[1] = test system: three melanoma and one breast cancer cell lines; test: Cell proliferation after 5 days of incubation; assay type: cell-based
Description: as §5

melanoma cell = test: Cell response to doxorubicin with and without compound; assay type: cell-based
Description: as §5

melanoma cells WM266 = test: Anti-tumor activity in mice bearing xenograft tumors; assay type: in vivo, nude mice (strain CD1); conditions: 20 mg/Kg, 3 injections, end of experiment
Description: (§6) FIGS. 5A-5B. Effect of CPADAML16 (20 mg/kg) on tumor growth (FIG. 5A) and body weight (FIG. 5B). Data represents 7 replicates ±SE.
(§7) Experiments were carried out to analyse the anti-tumor activity and safety of CPADAML16 in mice bearing xenograft tumors. For this, nude mice (strain CD1) were sub-cutaneously inoculated with melanoma cells WM266 and after tumors became palpable, they were randomized into control and treatment groups and received 3 injections (starting on day 15 and separated by three days) of vehicle (control group) or CPADAML16 dissolved in the vehicle solution (treatment groups). Tumor volumes and body weight were measured and mice evaluated for signs of toxicity on a daily basis. At the end of experiments, the animals were sacrificed and tumors harvested to determine if molecular targets of CPADAML16 were altered.

[2] = Body weight and signs of toxicity in xenograft mice; assay type: in vivo, nude mice (strain CD1); conditions: WM266 xenograft mice
Description: as §6, §7

Question: With CCCCCOc1ccccc1C(=O)c1cc(C(=O)OCC)c(=O)n(Cc2ccccc2)c1 [CPADAML16, 3-Ethoxycarbonyl-5-(o-pentyloxybenzoyl)-1-(benzyl)pyridin-2-one] as the compound, how does the “Hippo pathway reporter luciferase activity” value (Hippo pathway) read?
Answer: remarkable inhibitory activity

Question: What about the “Wnt signaling reporter luciferase activity” value (Wnt signaling) of the same compound?
Answer: remarkably inhibited

Question: And the “TGF beta signaling reporter luciferase activity” value (TGF beta signaling)?
Answer: remarkably inhibited

Question: And the Taz levels (TAZ)?
Answer: reduced in a concentration dependent manner

Question: And the YAP levels (YAP)?
Answer: largely unaltered

Question: And the TEAD levels (TEAD)?
Answer: largely unaltered

Question: And the “phosphorylation of MST1” value (MST1)?
Answer: did not affected phosphorylation

Question: What about the “phosphorylation of Lats1” value (Lats1) of the same compound?
Answer: did not affected phosphorylation

Question: What about the “phosphorylation of GSK3” value (GSK3 beta) of the same compound?
Answer: inhibited phosphorylation

Question: What about the “phosphorylation of Akt” value (Akt) of the same compound?
Answer: not due to reduced phosphorylation of Akt

Question: What about the “potency of AMPK activation compared with AICAR” value (AMPK) of the same compound?
Answer: more potent than AICAR

Question: And the “phosphorylation of AMPK at threonine 172” value (AMPK; concentration and time dependent, various cell lines)?
Answer: strongly induced phosphorylation

Question: And the cell migration (cell migration)?
Answer: strongly inhibits

Question: And the proliferation [1]?
Answer: strongly inhibits

Question: And the “melanoma cell response to doxorubicin in the presence of the compound” value (melanoma cell)?
Answer: significantly enhanced

Question: And the tumor growth inhibition (melanoma cells WM266)?
Answer: about 90%

Question: And the body weight ([2]; 20 mg/kg)?
Answer: did not change significantly

Question: And the “health / signs of toxicity” value ([2]; evaluated daily)?
Answer: in good health throughout the experiment
